Assays:
VEGFR-2 = experiment: VEGF signaling assay with Dynasore, western blotting; assay type: cell-based, human; details: HUVEC, 40 or 80 μM Dynasore, VEGF-A 50 ng/ml
retina angiogenesis = experiment: Retinal angiogenic sprouting in EC-iDKO P6 pups, isolectin B4 staining; assay type: in vivo, mice; details: IP/intraocular injection
Experimental: Immunohistochemistry and immunofluorescence of tissue samples. Immunohistochemistry and immunofluorescence were performed as described with modifications (Chen et al., 1998; Chen et al., 2009). • E9/10 Hind Brain: Embryos were harvested at E9 or E10 and fixed. Hindbrain was harvested and processed for staining with anti-CD31 and donkey anti-rat Alex Fluor 488 secondary antibody. • P6 Skin: Wild-type or EC-iDKO pups were injected intraperitoneally with 5 mg/kg (body weight) of 4-hydroxytamoxifen (10 mg/ml of 4-Hydroxytamoxifen resuspended in 10% of ethanol and 90% of DMSO) per day from postnatal day 1 (P1) to P3. Pups were euthanized at P6 and skin from abdomen was harvested and processed for whole mount staining with anti-CD31 and donkey anti-rat Alexa Fluor 488 secondary antibody. • P6 Retina: Wild-type or EC-iDKO Pups were injected with 4-hydroxytamoxifen as described above per day from postnatal day 2 (P2) to P4. P6 pups were euthanized and whole eyes harvested. […]
Receptor tyrosine kinase inhibitors injection. […] For western blot analysis, skin and heart tissues were collected from WT P6 pups injected either with DMSO or inhibitors and analyzed for phospho-Akt and total Akt.

DKO MECs = experiment: BrdU labeling of mouse endothelial cells; assay type: cell-based
Experimental: BrdU labeling. BrdU labeling of Mouse Endothelial Cells. WT and DKO MECs were grown in a 48-well plate until they reached 50% percent confluency. Cells were starved overnight and stimulated with growth factors or growth factors plus inhibitors for 6 h. BrdU labeling and detection kit (Roche) was then used to label the proliferating cells. Briefly, cells were incubated with BrdU labeling medium (1:500 diluted in medium) for 3 h. Cells were washed three times with wash buffer and fixed with ethanol for 20 min at −20° C. followed by washing the cells three times with wash buffer and incubated with 6M HCl/0.1% Triton for 30 minutes at room temperature. This was followed by six washes with PBS/0.1% Triton. Cells were blocked with PBS/0.3% Triton/3% BSA/3% donkey serum for 30 min at room temperature followed by incubation with anti-BrdU working solution for 30 minutes at 37° C. After three washes with wash buffer cells were again incubated with donkey anti-mouse Ig-fluorescein for 30 minutes at 37° C. After washing the cells three times with wash buffer they were stained with DAPI and visualized using Olympus Fluorescent microscope. Percentage of proliferating cells was calculated based on the ratio of BrdU-positive cells versus DAPI-positive cells.

[1] = in vivo; cited from earlier work
[2] = free acid; cited from earlier work
gliomas = details: given before, at the time of or after tumor implantation; cited from earlier work
[3] = cited from earlier work

Structure (SMILES): O=C(N/N=C/c1ccc(O)c(O)c1)c1cc2ccccc2cc1O [Dynasore]
- total levels of VEGFR-2 and phosphorylation of VEGFR-2 and its downstream signaling effectors (VEGFR-2): dramatically increased

Structure (SMILES): CC(C)c1cc(/C=C(\C#N)C(=O)NCCCc2ccccc2)cc(C(C)C)c1O [inhibitors to VEGFR-2]
- elevated angiogenic sprouting in EC-iDKO retina (retina angiogenesis): reversed
- VEGF-increased proliferation of DKO MECs (DKO MECs): abrogated

Structure (SMILES): CC(C)(C)[N+]([O-])=Cc1ccc(S(=O)(=O)O)cc1S(=O)(=O)O [2,4-ds PBN, 2,4-disulfonyl phenyl-tert-butyl nitrone]
- efficacy as compared to PBN [1]: unexpected increase
- potency as compared to PBN [1]: increase in potency
- toxicity as compared to PBN [1]: marked and highly significant decrease
- solubility in water [2]: greater than 1 gram/ml

Structure (SMILES): CC(C)(C)[N+]([O-])=Cc1ccccc1 [PBN, phenyl N-tert-butyl nitrone]
- glioma tumor development (gliomas): able to control tumor development
- tissue distribution ([3]; rat, in vivo): readily and rapidly distributed almost equally to all tissues
- half-life ([3]; rats): about 132 minutes

— patent US20120197059A1, “UBIQUITIN INTERACTING MOTIF PEPTIDES AS CANCER THERAPEUTICS” (priority 2011, published 2012)
